Results reported in patent publication US20260199327A1, “PHARMACEUTICAL COMBINATION AND PHARMACEUTICAL COMPOSITION FOR TREATING CANCER” (CSPC ZHONGQI PHARMACEUTICAL TECHNOLOGY (SHIJIAZHUANG) CO., …, priority 2022, published 2026).
Like-named read-outs stand apart in the source and are kept apart here. Marks after values point to notes of the source that are not given here.

Key:
[1] = 638 patients, cited from earlier work
[2] = patients taking sorafenib, N=2276; cited from earlier work
[3] = test system: Hep3B (human hepatocarcinoma cell line) xenograft
Procedure: 36 BALB/c Nude mice, female, 18-20 g in body weight.
Compounds of formula (B), sorafenib tosylate, palbociclib.
Sorafenib tosylate/palbociclib: a solution of castor oil, anhydrous ethanol and ultrapure water in a volume ratio of 1:1:6.
In the solvent group, the solvents were administered at the same frequency and volume for 16 consecutive days.
4.3 Observation Criteria and Evaluation Criteria: Same as Example 2

[4] = target: FGFR4 (Homo sapiens, UniProt P22455); test: FGFR4 kinase activity inhibition experiment (Caliper mobility shift assay); assay type: biochemical
Procedure: FGFR4 protein kinase activity was determined using Caliper mobility shift assay. The compound was dissolved in DMSO and then diluted with kinase buffer, 5 μL of 5-fold final reaction concentration of compound (10% DMSO) was added to a 384-well plate. […] After incubation at 28° C. for 30-60 minutes, 25 μL of stop solution was added to stop the reaction. Conversion data was read on Caliper EZ Reader II (Caliper Life Sciences). The conversion rate was converted to inhibition rate (% inhibition=(max−sample conversion rate)/(max−min)*100), wherein max refers to the conversion rate of the DMSO control, and min refers to the conversion rate of enzyme-free control. Curve was plotted with compound concentration and inhibition rate on the horizontal and vertical coordinates respectively, and the curve was fitted and IC50 was calculated using XLFit excel add-in version 4.3.1 software.

[5] = test system: Huh-7 cells; test: Huh-7 tumor cell proliferation inhibition assay (CellTiter Glo); assay type: cell-based; conditions: Homo sapiens, 72 or 168 hours
Procedure: Huh-7 cell suspension was adjusted to 5×10^4/ml or 2×10^4/ml with DMEM+2 mM Glutamine+10% FBS medium. 100 μL of cell suspension was added per well to a 96-well cell culture plate, to give a final cell concentration of 5000 cells/well (72 hours) or 2000 cells/well (168 hours). The compound to be tested (compound of formula (B)) was dissolved in DMSO to give 10 mmol of stock solution. 200× final concentration of compound was prepared with stock solution and DMSO, and 3× serial gradient dilutions were prepared, then diluted 20-fold each with medium. Finally, 10 μL of the corresponding 10-fold solution was added per well for each cell, wherein each drug concentration was added in one well. […] After 72 or 168 hours of drug treatment, according to CTG instructions (CellTiter Glo), 100 μL of CTG solution that had been previously thawed and equilibrated to room temperature was added per well, mixed for 2 minutes using a microplate shaker, placed at room temperature for 10 minutes, and then chemiluminescent signal value was measured with EnSpire plate reader. Cell survival was calculated using formula: (Vsample−Vblank)/(Vvehicle control−Vblank)×100%, wherein Vsample is the reading of the drug treatment group, Vvehicle control is the average of the solvent control group, and Vblank is the average of the blank control wells. […]

[6] = test system: Hep3B (human hepatocarcinoma cell line) xenograft; remark: listed apart in the source
From the text: 42 NU/NU mouse, female, 42-48 days old, weighing 22-26 g.
Hep3B cells were resuscitated and passaged in vitro to the desired number of cells. The cells were counted under a microscope, and diluted with serum-free medium and matrix gel (1:1) to adjust the number of tumor cells to approximately 5×10^7 cells/mL. The cell suspension was placed in an ice bath.
Hep3B cell suspension was withdrawn with a sterile syringe for inoculation into subcutaneous tissue in the axilla of the forelimb of NU/NU mice, with a volume of 0.1 mL/per mice, containing approximately 5.0×10^6 tumor cells, to prepare NU/NU mice Hep3B xenogratf model.
In the vehicle group, the solvents were administered at the same frequency and volume for 14 consecutive days.
4.3 Observation Criteria and Evaluation Criteria • (1) General state observation: all animals were observed once a day during the test period and the abnormalities in various parts of the body and the behavior change situations were recorded. • (2) Body weight: all animals were weighed once before testing and the appropriate body weight of animals were selected for testing. Animals were weighed once a day at a fixed time after initiation of administration for weight monitoring, and body weight statistics were consistent with tumor volume statistics. • (3) Death and moribund: time of death was recorded for dead animals, moribund animals were observed more frequently, and time of death was determined. • (4) Tumor Evaluation
After animal grouping, tumor length and short diameters were measured twice per week. • (1) Tumor volume: V=½×a×b^2 • (2) Relative tumor volume:
[formula] • (3) Relative tumor volume proliferation rate:
[formula] • (4) Tumor growth inhibition rate:
[formula] • Note: V: Tumor volume • a: tumor length; b: tumor width; RTV: relative tumor volume; TVnd: tumor volume on day n; TV0d: tumor volume on day 0; RTVxnd: mean relative tumor volume on day n; TVXn: mean tumor volume on day n in the administrated group; TVX0: mean tumor volume on day 0 in the administrated group; TVMn: mean tumor volume on day n in the solvent (model) group; TVM0: mean tumor volume on day 0 in the solvent (model) group. • (5) Tumor weight
At the end of the test, the animals were sacrificed by cervical dislocation, and a tumor was stripped and weighed.
Data were processed using SPSS 19.0 statistical software. Repeated Measure process analyzed tumor volume changes between groups with multiple measurements over time. Multivariate process compared differences in tumor volume between groups at each measurement. Difference in tumor weight between groups was analyzed by LSD method of One-way ANOVA.

[7] = most common drug-related adverse events
[8] = BALB/c Nude mice, gavage qd 16 days, compound of formula (B) 5 mg/kg, sorafenib tosylate 8 mg/kg, palbociclib 50 mg/kg
[9] = compound of formula (B) 5 mg/kg, sorafenib tosylate 8 mg/kg, palbociclib 50 mg/kg qd
[10] = compound of formula (B) 5 mg/kg, sorafenib tosylate 8 mg/kg, palbociclib 50 mg/kg qd, listed as compound of formula (B)
[11] = NU/NU mice, gavage qd 14 days, compound of formula (B) 5 mg/kg, lenvatinib mesylate 8 mg/kg, palbociclib 50 mg/kg
[12] = d14, compound of formula (B) 5 mg/kg, lenvatinib mesylate 8 mg/kg, palbociclib 50 mg/kg qd

Sequence of FGFR4 (P22455 22-802): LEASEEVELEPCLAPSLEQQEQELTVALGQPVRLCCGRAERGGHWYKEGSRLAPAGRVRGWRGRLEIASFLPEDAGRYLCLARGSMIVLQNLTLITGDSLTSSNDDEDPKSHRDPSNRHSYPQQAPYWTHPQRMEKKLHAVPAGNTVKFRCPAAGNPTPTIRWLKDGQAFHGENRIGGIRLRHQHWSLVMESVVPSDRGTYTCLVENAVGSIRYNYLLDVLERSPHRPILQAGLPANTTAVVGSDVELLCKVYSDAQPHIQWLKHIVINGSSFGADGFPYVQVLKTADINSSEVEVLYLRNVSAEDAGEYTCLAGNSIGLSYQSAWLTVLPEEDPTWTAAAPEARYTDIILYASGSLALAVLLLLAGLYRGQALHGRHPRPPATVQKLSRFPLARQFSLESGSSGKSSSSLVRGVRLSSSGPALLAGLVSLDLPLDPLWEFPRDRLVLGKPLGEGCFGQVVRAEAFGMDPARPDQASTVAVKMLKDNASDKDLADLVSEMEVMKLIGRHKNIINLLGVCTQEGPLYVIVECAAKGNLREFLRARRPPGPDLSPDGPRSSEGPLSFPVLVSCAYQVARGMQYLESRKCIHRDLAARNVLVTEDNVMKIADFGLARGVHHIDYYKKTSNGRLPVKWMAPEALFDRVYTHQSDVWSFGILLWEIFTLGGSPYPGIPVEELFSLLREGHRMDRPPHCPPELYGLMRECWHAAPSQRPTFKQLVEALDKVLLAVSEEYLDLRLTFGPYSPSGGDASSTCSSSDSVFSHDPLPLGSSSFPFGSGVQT

CNC(=O)c1cc(Oc2ccc(NC(=O)Nc3ccc(Cl)c(C(F)(F)F)c3)cc2)ccn1 [sorafenib]
incidence of CTC (version V2.0) Grade 3 drug-related adverse events [1]: 37% | incidence of CTC (version V2.0) Grade 4 drug-related adverse events [1]: 3% | diarrhea [1, 7]: 37% | hand and foot skin reactions [1, 7]: 35% | malaise [1, 7]: 33% | rash [1, 7]: 38% | incidence of congestive heart failure [2]: 1.9%

N#Cc1cnc(NC(=O)N2CCCc3cc(CN4CCN5CCC[C@H]5C4=O)c(C=O)nc32)cc1NC1CC1 [Compound of formula (B)]
Change Rate in Weight (%) [3, 8]: −12.0% | Number of Animals (Survived/Total) [3, 8]: 6/6 | growth of xenograft tumor (tumor volume) versus vehicle, in words ([3]; at the test dose): can significantly inhibit the growth of the xenograft tumor | tumor growth (tumor weight) versus vehicle, in words ([3]; at the test dose): can significantly inhibit tumor growth | TV(mm3) d16 ([3]; d16, Mean ± SD, n = 6, compound of formula (B) 5 mg/kg, sorafenib tosylate 8 mg/kg, palbociclib 50 mg/kg qd): 608.1 ± 293.4 mm3 | T/C d16 (%) (relative tumor volume proliferation rate) [3, 9]: 75.1% | TGI d16 (%) (tumor growth inhibition rate) [3, 9]: 44.5% | T/C d16 (%) (relative tumor volume proliferation rate) [3, 10]: 84.5% | TGI d16 (%) (tumor growth inhibition rate) [3, 10]: 30.9% | tumor volume growth compared to model (vehicle) group at corresponding time points, in words ([3]; days as stated (d13-d16 alone; d3-d6, d10-d16 with sorafenib tosylate; d6-d16 with palbociclib)): can significantly inhibit tumor volume growth | Tumor Weight ([3]; end of test, Mean ± SD, n = 6, compound of formula (B) 5 mg/kg, sorafenib tosylate 8 mg/kg, palbociclib 50 mg/kg qd): 0.59 ± 0.34 g | Tumor Weight Inhibition Rate (%) ([3]; end of test, compound of formula (B) 5 mg/kg, sorafenib tosylate 8 mg/kg, palbociclib 50 mg/kg qd): 46.4% | Tumor Weight Inhibition Rate (%) ([3]; end of test, compound of formula (B) 5 mg/kg, sorafenib tosylate 8 mg/kg, palbociclib 50 mg/kg qd, listed as compound of formula (B)): 27.8% | IC50 [4]: < 5 nM | IC50 [5]: < 10 nM | Change Rate in Weight (%) [6, 11]: −4.5% | Number of Animals (Survived/Total) [6, 11]: 7/7 | growth of tumor (tumor weight) versus vehicle, in words ([6]; at the test dose): significantly inhibited the growth of the xenograft tumor | growth of xenograft tumor (tumor volume) versus vehicle, in words ([6]; at the test dose): significantly inhibited the growth of the xenograft tumor | TV (mm^3) d14 ([6]; d14, Mean ± SD, n = 7, compound of formula (B) 5 mg/kg, lenvatinib mesylate 8 mg/kg, palbociclib 50 mg/kg qd): 607.8 ± 277.1** mm^3 | T/C d14 (%) (relative tumor volume proliferation rate) [6, 12]: 55.8% | TGI d14 (%) (tumor growth inhibition rate) [6, 12]: 49.1% | Tumor Weight ([6]; end of test, Mean ± SD, n = 7, compound of formula (B) 5 mg/kg, lenvatinib mesylate 8 mg/kg, palbociclib 50 mg/kg qd): 0.7481 ± 0.3692 g | Tumor Weight Inhibition Rate (%) ([6]; end of test, compound of formula (B) 5 mg/kg, lenvatinib mesylate 8 mg/kg, palbociclib 50 mg/kg qd): 43.8%
